Values of other authors, collected in patent publication US20200253884A1, “NANOBIOLOGIC COMPOSITIONS FOR PROMOTING TRAINED IMMUNITY” (ICAHN SCHOOL OF MEDICINE AT MOUNT SINAI, priority 2017, published 2020).

How the values were obtained:
[1] = tested on: diffuse large B-cell lymphoma (DLBCL); settings: preliminary results
multiple cancers = settings: in vivo

| Substance | subjects progression-free at the end of the follow-up period ([1]; control group 47%) | subjects alive ([1]; control group 62%) | clinical activity (multiple cancers) | safety profile (multiple cancers) |
| --- | --- | --- | --- | --- |
| CT-011: humanized IgG1 monoclonal antibody against PD-1 | 70% | 82% | – | – |
| Medi 4736: anti-PD-L1 antibody | – | – | durable clinical activity | acceptable safety profile |
